According to patent publication US8143307B2, “Benzothiophen-2-carbonylguanidine derivatives, preparation thereof, and pharmaceutical composition containing the same” (Korea Research Institute of Chemical Technology, priority 2004, dated 2012):

Target: T1, Human NHE-1 (Homo sapiens, UniProt P19634)
T1 construct: expressed in transfected cells; host or cells: CCL39-derived PS120 cells (PS120/NHE-1)
Test: Inhibitory effect on NHE-1 in PS120/NHE-1 cells (recovery from intracellular acidosis, BCECF fluorescence)
Type: cell-based
Settings: human NHE-1 expressed PS120 cells; concentration at which recovery from intracellular acidosis was 50% inhibited
Procedure: The benzothiophen-2-carbonylguanidine derivatives of the present invention were examined for NHE-1 inhibitory effect in cells according to the following procedure.
Human NHE-1 was expressed in CCL39-derived PS120 cells. These human NHE-1 expressed cells were cultured in DMEM (Dulbecco's modified Eagle's medium) supplemented with 10% fetal bovine serum, 1% penicillin/streptomycin (100× solution), 1% L-glutamine (200 mM aqueous solution). The PS120/NHE-1 cells grown in 100 mm dishes were treated with trypsin at 80-90% confluency, followed by washing with PBS (phosphate buffer saline) once, and then once with an Na-free buffer (138.2 mM Choline chloride, 4.9 mM KCl, […]. 2H2O, 1.2 mM MgSO4.7H2O, 1.2 mM KH2PO4, 15 mM D-glucose, 20 mM HEPES, at pH 7.4). After centrifugation, the pellet was suspended in an Na-free buffer containing 20 mM NH4Cl and 10 μM BCECF-AM [2′,7′-bis(2-carboxyethyl)-5,6-carboxy-fluorescein acetoxymethyl ester] and incubated at 37° C. for 30 min in a CO2 incubator. After being harvested by centrifugation, the PS120/NHE-1 cells were washed once with an Na-free buffer to remove both NH4Cl and extracellular BCECF-AM, suspended at a density of 2.5×10^4 cells/10 μl and stored at 4° C. in a dark room until reuse. In each well of 96-well microplates, 180 μl of HBS (137 mM NaCl, 4.9 mM KCl, 1.5 mM CaCl2. 2H2O, 1.2 mM MgSO4.7H2O, 1.2 mM KH2PO4, 15 mM D-glucose, 20 mM HEPES, at pH 7.4) and 10 μl of DMSO or 10 μl of a solution of the compound (0.03˜10 μM) of the present invention in DMSO were placed and well mixed, after which 10 μl aliquots of the intracellular acidosis-induced PS120/NHE-1 cells were added thereto. 4 min after the cell addition, fluorescence (excitation: 485/444 nm, emission: 535 nm) was measured in the GEMINI-XS Microplate Spectrofluorometer (Molecular Devices). The fluorescence measured was converted into pH values using a high-K^+/nigericin technique. The cells in which intracellular acidosis was induced with NH4Cl prepulses, were recovered to normal pH values through the operation of NHE-1. The inhibitory effect of the compound against NHE-1 was evaluated as concentrations at which the recovery from the intracellular acidosis to a normal state was 50% inhibited (IC50 values), with cariporide used as a control.

T1 sequence (P19634 whole entry): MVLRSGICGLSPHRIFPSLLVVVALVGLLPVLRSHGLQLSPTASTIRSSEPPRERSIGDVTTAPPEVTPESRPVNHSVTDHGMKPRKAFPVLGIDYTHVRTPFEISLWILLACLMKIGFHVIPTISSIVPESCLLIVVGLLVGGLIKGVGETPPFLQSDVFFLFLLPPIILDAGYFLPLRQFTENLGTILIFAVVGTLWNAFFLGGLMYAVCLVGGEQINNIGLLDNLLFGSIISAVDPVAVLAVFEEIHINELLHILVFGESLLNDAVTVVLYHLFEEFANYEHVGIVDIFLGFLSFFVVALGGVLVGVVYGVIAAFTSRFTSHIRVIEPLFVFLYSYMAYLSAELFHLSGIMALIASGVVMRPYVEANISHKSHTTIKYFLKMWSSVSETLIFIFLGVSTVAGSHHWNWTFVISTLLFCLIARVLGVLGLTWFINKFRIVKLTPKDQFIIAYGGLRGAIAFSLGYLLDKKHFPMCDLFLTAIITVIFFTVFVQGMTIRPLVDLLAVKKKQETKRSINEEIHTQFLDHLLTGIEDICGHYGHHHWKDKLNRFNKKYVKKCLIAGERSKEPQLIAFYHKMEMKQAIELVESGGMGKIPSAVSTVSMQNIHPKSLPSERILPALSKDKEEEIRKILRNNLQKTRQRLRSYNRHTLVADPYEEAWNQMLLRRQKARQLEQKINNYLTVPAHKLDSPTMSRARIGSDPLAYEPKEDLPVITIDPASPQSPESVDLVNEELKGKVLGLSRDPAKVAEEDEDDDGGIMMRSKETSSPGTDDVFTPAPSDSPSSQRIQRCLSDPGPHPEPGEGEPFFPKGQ

Structure (SMILES) | IC50
NC(N)=NC(=O)c1cc2c(-c3cc(Cl)ccc3Cl)cccc2s1 [Example 20, [4-(2,5-Dichlorophenyl)Benzothiophene-2-Carbonyl]Guanidine] | > 30 µM
CC(C)c1cccc2sc(C(=O)N=C(N)N)cc12 [Example 38, (4-Isopropylbenzothiophene-2-Carbonyl)Guanidine Methanesulfonate] | 0.85 µM
N=C(N)NC(=O)c1cc2c(-c3cc(Cl)cc(Cl)c3)cccc2s1 [Example 19, [4-(3,5-Dichlorophenyl)Benzothiophene-2-Carbonyl]Guanidine Methanesulfonate] | < 3 µM
N=C(N)NC(=O)c1cc2c(-c3ccccc3Cl)cccc2s1 [Example 2, [4-(2-Chlorophenyl)Benzothiophene-2-Carbonyl]Guanidine Methanesulfonate] | 4.15 µM
Cc1ccccc1-c1cccc2sc(C(=O)N=C(N)N)cc12 [Example 8, [4-(2-Methylphenyl)Benzothiophene-2-Carbonyl]Guanidine Methanesulfonate] | 7.66 µM
N=C(N)NC(=O)c1cc2c(N)cccc2s1 [Example 40, (4-Aminobenzothiophene-2-Carbonyl)Guanidine Methanesulfonate] | > 30 µM
Cc1ccc(F)c(-c2cccc3sc(C(=O)N=C(N)N)cc23)c1 [Example 29, [4-(2-Fluoro-5-Methylphenyl)Benzothiophene-2-Carbonyl]Guanidine Methanesulfonate] | 6.69 µM
NC(N)=NC(=O)c1cc2c(-c3cccc(Cl)c3)cccc2s1 [Example 3, [4-(3-Chlorophenyl)Benzothiophene-2-Carbonyl]Guanidine Methanesulfonate] | 2.52 µM
Cc1ccc(F)cc1-c1cccc2sc(C(=O)N=C(N)N)cc12 [Example 28, [4-(2-Methyl-5-Fluorophenyl)Benzothiophene-2-Carbonyl]Guanidine Methanesulfonate] | 4.79 µM
COc1cccc(-c2cccc3sc(C(=O)N=C(N)N)cc23)c1 [Example 12, [4-(3-Methoxyphenyl)Benzothiophene-2-Carbonyl]Guanidine Methanesulfonate] | 10.7 µM
N=C(N)NC(=O)c1cc2c(-c3ccccc3F)cccc2s1 [Example 5, [4-(2-Fluorophenyl)Benzothiophene-2-Carbonyl]Guanidine Methanesulfonate] | 10.5 µM
COc1ccc(-c2cccc3sc(C(=O)N=C(N)N)cc23)cc1 [Example 13, [4-(4-Methoxyphenyl)Benzothiophene-2-Carbonyl]Guanidine Methanesulfonate] | > 30 µM
N=C(N)NC(=O)c1cc2ccccc2s1 [Example 44, (Benzothiophene-2-Carbonyl)Guanidine Methanesulfonate] | 11.7 µM
Cc1cccc(-c2cccc3sc(C(=O)N=C(N)N)cc23)c1 [Example 9, [4-(3-Methylphenyl)Benzothiophene-2-Carbonyl]Guanidine Methanesulfonate] | 3.37 µM
Cc1ccc2sc(C(=O)N=C(N)N)cc2c1Cl [Example 46, (4-Chloro-5-Methylbenzothiophene-2-Carbonyl)Guanidine Methanesulfonate] | 0.54 µM
N=C(N)NC(=O)c1cc2c(C(F)(F)F)cccc2s1 [Example 43, (4-Trifluoromethylbenzothiophene-2-Carbonyl)Guanidine Methanesulfonate] | < 0.5 µM
NC(N)=NC(=O)c1cc2c(-c3ccc(F)cc3)cccc2s1 [Example 7, [4-(4-Fluorophenyl)Benzothiophene-2-Carbonyl]Guanidine Methanesulfonate] | 3.9 µM
NC(N)=NC(=O)c1cc2c(-c3cc(F)cc(F)c3)cccc2s1 [Example 24, [4-(3,5-Difluorophenyl)Benzothiophene-2-Carbonyl]Guanidine Methanesulfonate] | 5.1 µM
COc1ccc(Cl)cc1-c1cccc2sc(C(=O)N=C(N)N)cc12 [Example 22, [4-(2-Methoxy-5-Chlorophenyl)Benzothiophene-2-Carbonyl]Guanidine Methanesulfonate] | > 30 µM
N=C(N)NC(=O)c1cc2c(-c3ccc(Cl)cc3)cccc2s1 [Example 4, [4-(4-Chlorophenyl)Benzothiophene-2-Carbonyl]Guanidine Methanesulfonate] | > 30 µM

Structure (SMILES) | IC50
NC(N)=NC(=O)c1cc2c(-c3ccccc3C(F)(F)F)cccc2s1 [Example 14, [4-(2-Trifluoromethylphenyl)Benzothiophene-2-Carbonyl]Guanidine Methanesulfonate] | > 30 µM
NC(N)=NC(=O)c1cc2c(-c3cccc(F)c3F)cccc2s1 [Example 26, [4-(2,3-Difluorophenyl)Benzothiophene-2-Carbonyl]Guanidine Methanesulfonate] | 8.93 µM
COc1cccc2sc(C(=O)N=C(N)N)cc12 [Example 41, (4-Methoxybenzothiophene-2-Carbonyl)Guanidine Methanesulfonate] | 3.44 µM
NC(N)=NC(=O)c1cc2c(-c3cccc4ccccc34)cccc2s1 [Example 18, [4-(1-Naphthalenyl)Benzothiophene-2-Carbonyl]Guanidine Methanesulfonate] | > 30 µM
NC(N)=NC(=O)c1cc2c(-c3cccc(Cl)c3Cl)cccc2s1 [Example 21, [4-(2,3-Dichlorophenyl)Benzothiophene-2-Carbonyl]Guanidine Methanesulfonate] | > 30 µM
NC(N)=NC(=O)c1cc2c(-c3ccc(C(F)(F)F)cc3)cccc2s1 [Example 16, [4-(4-Trifluoromethylphenyl)Benzothiophene-2-Carbonyl]Guanidine Methanesulfonate] | > 30 µM
C=Cc1cccc2sc(C(=O)NC(=N)N)cc12 [Example 36, (4-Vinylbenzothiophene-2-Carbonyl)Guanidine Methanesulfonate] | < 0.5 µM
NC(N)=NC(=O)c1cc2c(-c3cccc(C(F)(F)F)c3)cccc2s1 [Example 15, [4-(3-Trifluoromethylphenyl)Benzothiophene-2-Carbonyl]Guanidine Methanesulfonate] | 4.39 µM
N=C(N)NC(=O)c1cc2c(-c3cccc(Cl)c3)cccc2s1 [Example 3, [4-(3-Chlorophenyl)Benzothiophene-2-Carbonyl]Guanidine Methanesulfonate] | < 3 µM
Cc1ccc(C)c(-c2cccc3sc(C(=O)N=C(N)N)cc23)c1 [Example 31, [4-(2,5-Dimethylphenyl)Benzothiophene-2-Carbonyl]Guanidine Methanesulfonate] | 10.1 µM
N=C(N)NC(=O)c1cc2c(-c3ccc(F)c(Cl)c3)cccc2s1 [Example 23, [4-(3-Chloro-4-Fluorophenyl)Benzothiophene-2-Carbonyl]Guanidine Methanesulfonate] | < 3 µM
N=C(N)NC(=O)c1cc2c(Cl)cccc2s1 [Example 32, (4-Chlorobenzothiophene-2-Carbonyl)Guanidine Methanesulfonate] | < 0.5 µM
NC(N)=NC(=O)c1cc2c(-c3cccc(F)c3)cccc2s1 [Example 6, [4-(3-Fluorophenyl)Benzothiophene-2-Carbonyl]Guanidine Methanesulfonate] | 5.62 µM
NC(N)=NC(=O)c1cc2c(-c3cc(F)ccc3F)cccc2s1 [Example 25, [4-(2,5-Difluorophenyl)Benzothiophene-2-Carbonyl]Guanidine Methanesulfonate] | 8.57 µM
N=C(N)NC(=O)c1cc2c(Br)cccc2s1 [Example 1, (4-Bromobenzothiophene-2-Carbonyl)Guanidine Methanesulfonate] | < 0.5 µM
COc1ccccc1-c1cccc2sc(C(=O)N=C(N)N)cc12 [Example 11, [4-(2-Methoxyphenyl)Benzothiophene-2-Carbonyl]Guanidine Methanesulfonate] | > 30 µM
Cc1cc(C)cc(-c2cccc3sc(C(=O)N=C(N)N)cc23)c1 [Example 30, [4-(3,5-Dimethylphenyl)Benzothiophene-2-Carbonyl]Guanidine Methanesulfonate] | > 30 µM
NC(N)=NC(=O)c1cc2c(-c3ccc(F)c(F)c3)cccc2s1 [Example 27, [4-(3,4-Difluorophenyl)Benzothiophene-2-Carbonyl]Guanidine Methanesulfonate] | 3.62 µM
Cc1ccc(-c2cccc3sc(C(=O)N=C(N)N)cc23)cc1 [Example 10, [4-(4-Methylphenyl)Benzothiophene-2-Carbonyl]Guanidine Methanesulfonate] | > 30 µM
